Measured values as given in ChEMBL document CHEMBL1201862, “PubChem BioAssay data set” (2004).
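Each compound was tested at five concentrations against cells in 96-well plates for 48 hours. Here, GI50 denotes the concentration required for 50% inhibition of growth.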 Activity calls are given as the source filed them. Rule as the data show it: active = GI50 up to about 1.1 µM and inactive = higher.

How the values were obtained:
Experiment in all cases: inhibition of tumour cell growth, NCI panel, 48 h
786-0 = tested on: 786-0
A498 = tested on: A498
A549 = tested on: A549
ACHN = tested on: ACHN
CAKI-1 = tested on: CAKI-1
CCRF-CEM = tested on: CCRF-CEM
COLO 205 = tested on: COLO 205
DLD-1 = tested on: DLD-1
DMS-114 = tested on: DMS-114
DMS-273 = tested on: DMS-273
EKVX = tested on: EKVX
HCC 2998 = tested on: HCC 2998
HCT-116 = tested on: HCT-116
HCT-15 = tested on: HCT-15
HL-60 = tested on: HL-60
HOP-18 = tested on: HOP-18
HOP-62 = tested on: HOP-62
HOP-92 = tested on: HOP-92
HT-29 = tested on: HT-29
IGROV-1 = tested on: IGROV-1
K562 = tested on: K562
KM-20L2 = tested on: KM-20L2
KM12 = tested on: KM12
LOX IMVI = tested on: LOX IMVI
LXFL 529 = tested on: LXFL 529
M14 = tested on: M14
M19-MEL = tested on: M19-MEL
MOLT-4 = tested on: MOLT-4
Malme-3M = tested on: Malme-3M
NCI-H226 = tested on: NCI-H226
NCI-H23 = tested on: NCI-H23
NCI-H460 = tested on: NCI-H460
NCI-H522 = tested on: NCI-H522
OVCAR-3 = tested on: OVCAR-3
OVCAR-4 = tested on: OVCAR-4
OVCAR-5 = tested on: OVCAR-5
OVCAR-8 = tested on: OVCAR-8
RPMI-8226 = tested on: RPMI-8226
RXF 393 = tested on: RXF 393
RXF 631 = tested on: RXF 631
SF-268 = tested on: SF-268
SF-295 = tested on: SF-295
SF-539 = tested on: SF-539
SK-MEL-28 = tested on: SK-MEL-28
SK-MEL-2 = tested on: SK-MEL-2
SK-MEL-5 = tested on: SK-MEL-5
SK-OV-3 = tested on: SK-OV-3
SN12C = tested on: SN12C
SNB-19 = tested on: SNB-19
SNB-75 = tested on: SNB-75
SNB-78 = tested on: SNB-78
SW-620 = tested on: SW-620
TK-10 = tested on: TK-10
U-251 = tested on: U-251
UACC-257 = tested on: UACC-257
UACC-62 = tested on: UACC-62
UO-31 = tested on: UO-31
XF498 = tested on: XF498
SR = tested on: SR

CCC(C)(O)c1cn(-c2ccc(S(=O)(=O)O)cc2)nn1 (configuration not stated)
GI50 (786-0): > 100 µM (inactive)
GI50 (A498): > 100 µM (inactive)
GI50 (A549): > 100 µM (inactive)
GI50 (ACHN): > 100 µM (inactive)
GI50 (CAKI-1): > 100 µM (inactive)
GI50 (CCRF-CEM): > 100 µM (inactive)
GI50 (COLO 205): > 100 µM (inactive)
GI50 (DLD-1): > 100 µM (inactive)
GI50 (DMS-114): > 100 µM (inactive)
GI50 (DMS-273): > 100 µM (inactive)
GI50 (EKVX): > 100 µM (inactive)
GI50 (HCC 2998): > 100 µM (inactive)
GI50 (HCT-116): > 100 µM (inactive)
GI50 (HCT-15): > 100 µM
GI50 (HL-60): > 100 µM (inactive)
GI50 (HOP-18): > 100 µM (inactive)
GI50 (HOP-62): > 100 µM (inactive)
GI50 (HOP-92): > 100 µM (inactive)
GI50 (HT-29): > 100 µM (inactive)
GI50 (IGROV-1): > 100 µM (inactive)
GI50 (K562): > 100 µM (inactive)
GI50 (KM-20L2): > 100 µM (inactive)
GI50 (KM12): > 100 µM (inactive)
GI50 (LOX IMVI): > 100 µM (inactive)
GI50 (LXFL 529): > 100 µM (inactive)
GI50 (M14): > 100 µM (inactive)
GI50 (M19-MEL): > 100 µM (inactive)
GI50 (MOLT-4): > 100 µM (inactive)
GI50 (Malme-3M): > 100 µM (inactive)
GI50 (NCI-H226): > 100 µM (inactive)
GI50 (NCI-H23): > 100 µM (inactive)
GI50 (NCI-H460): > 100 µM (inactive)
GI50 (NCI-H522): > 100 µM (inactive)
GI50 (OVCAR-3): > 100 µM (inactive)
GI50 (OVCAR-4): > 100 µM (inactive)
GI50 (OVCAR-5): > 100 µM (inactive)
GI50 (OVCAR-8): > 100 µM (inactive)
GI50 (RPMI-8226): > 100 µM (inactive)
GI50 (RXF 393): > 100 µM (inactive)
GI50 (RXF 631): > 100 µM (inactive)
GI50 (SF-268): > 100 µM (inactive)
GI50 (SF-295): > 100 µM (inactive)
GI50 (SF-539): > 100 µM (inactive)
GI50 (SK-MEL-28): > 100 µM (inactive)
GI50 (SK-MEL-2): > 100 µM (inactive)
GI50 (SK-MEL-5): > 100 µM (inactive)
GI50 (SK-OV-3): > 100 µM (inactive)
GI50 (SN12C): > 100 µM (inactive)
GI50 (SNB-19): > 100 µM (inactive)
GI50 (SNB-75): > 100 µM (inactive)
GI50 (SNB-78): > 100 µM (inactive)
GI50 (SW-620): > 100 µM (inactive)
GI50 (TK-10): > 100 µM (inactive)
GI50 (U-251): > 100 µM (inactive)
GI50 (UACC-257): > 100 µM (inactive)
GI50 (UACC-62): > 100 µM (inactive)
GI50 (UO-31): > 100 µM (inactive)
GI50 (XF498): > 100 µM (inactive)

C/C(=N\NC(N)=S)c1ccc(C)cc1C
GI50 (786-0): > 100 µM (inactive)
GI50 (A498): > 100 µM (inactive)
GI50 (A549): 53.5 µM (inactive)
GI50 (ACHN): > 100 µM (inactive)
GI50 (CAKI-1): > 100 µM (inactive)
GI50 (CCRF-CEM): > 100 µM (inactive)
GI50 (COLO 205): 55.8 µM (inactive)
GI50 (DLD-1): 56.8 µM (inactive)
GI50 (DMS-273): > 100 µM (inactive)
GI50 (EKVX): 8.41 µM (inactive)
GI50 (HCC 2998): > 100 µM (inactive)
GI50 (HCT-116): > 100 µM (inactive)
GI50 (HCT-15): > 100 µM
GI50 (HL-60): 36 µM (inactive)
GI50 (HOP-18): > 100 µM (inactive)
GI50 (HOP-62): > 100 µM (inactive)
GI50 (HOP-92): > 100 µM (inactive)
GI50 (HT-29): 28.6 µM (inactive)
GI50 (IGROV-1): 48.8 µM (inactive)
GI50 (K562): 81.5 µM (inactive)
GI50 (KM-20L2): > 100 µM (inactive)
GI50 (KM12): 60.8 µM (inactive)
GI50 (LOX IMVI): > 100 µM (inactive)
GI50 (LXFL 529): 39.1 µM (inactive)
GI50 (M14): > 100 µM (inactive)
GI50 (M19-MEL): 36.9 µM (inactive)
GI50 (MOLT-4): 41.8 µM (inactive)
GI50 (Malme-3M): > 100 µM (inactive)
GI50 (NCI-H226): > 100 µM (inactive)
GI50 (NCI-H23): > 100 µM (inactive)
GI50 (NCI-H460): 64.7 µM (inactive)
GI50 (OVCAR-3): 75.7 µM (inactive)
GI50 (OVCAR-4): 84.5 µM (inactive)
GI50 (OVCAR-5): 27 µM (inactive)
GI50 (OVCAR-8): > 100 µM (inactive)
GI50 (RPMI-8226): > 100 µM (inactive)
GI50 (RXF 393): 8.2 µM (inactive)
GI50 (RXF 631): 91 µM (inactive)
GI50 (SF-295): > 100 µM (inactive)
GI50 (SF-539): > 100 µM (inactive)
GI50 (SK-MEL-2): 37.2 µM (inactive)
GI50 (SK-MEL-5): 21.7 µM (inactive)
GI50 (SK-OV-3): > 100 µM (inactive)
GI50 (SN12C): > 100 µM (inactive)
GI50 (SNB-75): 47.5 µM (inactive)
GI50 (SNB-78): > 100 µM (inactive)
GI50 (SR): < 0.01 µM (active)
GI50 (SW-620): > 100 µM (inactive)
GI50 (TK-10): > 100 µM (inactive)
GI50 (U-251): > 100 µM (inactive)
GI50 (UACC-257): 38.4 µM (inactive)
GI50 (UACC-62): 38.9 µM (inactive)
GI50 (UO-31): 82.6 µM (inactive)
GI50 (XF498): 43.1 µM (inactive)
